Data published in patent US7118895B2, “Process for producing aglycon by using diglycosidase and flavor-improved food containing the aglycon and converting agent to be used in the process” (Amano Enzyme Inc., priority 2000, dated 2006).
Blank lines part the entries; values can stand above or below the compound they belong to.

Legend:
[1] = Effective amount of Amylase AD “Amano” 1 accelerating the conversion into aglycon isoflavones by diglycosidase; format: biochemical; details: Amylase AD “Amano” 1 at 0.005% (w/v) with diglycosidase 0.1% (w/v); roasted soy flour 30% (w/v), pH 5.0, 50° C., 3 hours
Description: Roasted soy flour (manufactured by Fuji Shokuhin K.K.) was suspended into 0.1 M sodium acetate adjusted to pH 3.15, the substrate concentration was adjusted to 30% (w/v), and the pH of the solution to 5.0. The suspension was pre-incubated at 50° C. for 1 hour, whereby the temperature of the suspension was elevated to 50° C. To the suspension were added diglycosidase so as to be a final concentration of 0.1% (w/v) (0.3 AU) and Amylase AD “Amano” 1 (manufactured by Amano Enzyme Innc.) so as to be 0.1, 0.05, 0.01, 0.005, and 0.0001% (w/v). The whole was reacted at 50° C. for 3 hours and the change of isoflavone composition was analyzed by HPLC.

[2] = test system: β-Glucosidase derived from almond; test: Reactivity toward various isoflavone glycosides (HPLC); format: biochemical; set-up: unit not given here; details: 55 °C, pH 4.0
Description: (§1) Diglycosidase was diluted with an acetate buffer of pH 4.0 to prepare a 0.75 AU/mL enzyme solution. As references, a similar operation was conducted using β-glucosidase (manufactured by Fluka) derived from Aspergillus niger, β-glucosidase (manufactured by Sigma) derived from almond, β-xylosidase derived from pectinase G (manufactured by Amano Enzyme Inc.). Each of purified products of isoflavone glycosides (glycitin, acetylglycitin, malonylglycitin, daidzin, acetyldaidzin, malonyldaidzin, genistin, acetylgenistin, malonylgenistin, all manufactured by Nacalai Tesque, Inc.) was dissolved in methanol to prepare each 2 mM substrate solution. The reaction was carried out by mixing 10 μL of a substrate solution, 200 μL of 20 mM acetate buffer (pH 4.0), and 40 μL of each purified enzyme solution at a total liquid volume of 250 μL. The reaction was carried out at 55° C. and isolation of an aglycon isoflavone from an isoflavone glycoside in the reaction mixture was detected by HLPC at 0, 1, 3, and 6 hours of the reaction.
(§2) To the reaction mixture was added 700 μL of ethanol, followed by stirring and ultrasonication. After centrifugation at 15,000 rpm and 4° C. for 10 minutes, the supernatant was filtered through a filter and then the filtrate was applied to HPLC.
(§3) The isoflavone glycoside and aglycon isoflavone contained in the filtrate was separated and detected by a high performance liquid chromatography (HPLC, Shimadzu CLASS LC-10 system) using TOSOH TSK gel ODS-80TM column (manufactured by Tosoh Corporation). […] The absorbance at 260 nm was detected by a UV detector (Shimadzu, SPD-10AV). Using purified products (manufactured by Nacalai Tesque, Inc.) of the above isoflavone glycosides and aglycon isoflavones, the isoflavone glycoside and aglycon isoflavone were quantitatively determined according to a calibration curve method. By the way, unless otherwise stated, the measuring conditions of HPLC herein mean those described in the example.

[3] = test system: β-Xylosidase derived from pectinase G; test: as above; format: biochemical; set-up: unit not given here; details: 55 °C, pH 4.0
Description: as §1, §2, §3

[4] = test system: Purified diglycosidase; test: Influence of free glucose on diglycosidase activity; format: biochemical, Penicillium multicolor IAM7153; details: isolated aglycon amount at glucose 0% and 0.5 hour = 100%
Description: Purified diglycosidase was diluted with 20 mM acetate buffer of pH 4.0 to prepare a 0.75 AU/mL enzyme solution.
With a glucose solution was mixed 10 μL of each 2 mM substrate solution described in Example 2, and 20 mM acetate buffer of pH 4.0 was added thereto to be a liquid volume of 210 μL. Further, 40 μL of the enzyme solution was added and reaction was carried out at a final liquid volume of 250 μL. Adjustment of the glucose solution to be added allows glucose to exist in the reaction mixture in the range of 0 to 20%. The reaction was carried out at 55° C. and the existence of isoflavone glycosides and aglycon isoflavones was detected by HLPC at 0, 0.5, 1, and 3 hours of the reaction.

increase of isolated aglycon versus diglycosidase alone [1]: 1.2 fold
SMILES: O=c1c(-c2ccc(O)cc2)coc2cc(O)ccc12 [daidzein]

increase of isolated aglycon versus diglycosidase alone [1]: 1.20 fold
SMILES: O=c1c(-c2ccc(O)cc2)coc2cc(O)cc(O)c12 [genistein]

increase of isolated aglycon versus diglycosidase alone [1]: 1.23 fold
SMILES: COc1cc2c(=O)c(-c3ccc(O)cc3)coc2cc1O [glycitein]

aglycon ([2]; Reaction time 0 h): 0 | glucoside ([2]; Reaction time 0 h): 100 | aglycon ([2]; Reaction time 1 h): 0 | glucoside ([2]; Reaction time 1 h): 100 | aglycon ([2]; Reaction time 3 h): 0 | glucoside ([2]; Reaction time 3 h): 100 | aglycon ([2]; Reaction time 6 h): 0 | glucoside ([2]; Reaction time 6 h): 100 | aglycon ([3]; Reaction time 0 h): 0 | glucoside ([3]; Reaction time 0 h): 100 | aglycon ([3]; Reaction time 1 h): 0 | glucoside ([3]; Reaction time 1 h): 100 | aglycon ([3]; Reaction time 3 h): 0 | glucoside ([3]; Reaction time 3 h): 100 | aglycon ([3]; Reaction time 6 h): 0.4 | glucoside ([3]; Reaction time 6 h): 99.6 | Isolation of isoflavone aglycons by diglycosidase in presence of glucose ([4]; Glucose concentration 0 %): 100% | Isolation of isoflavone aglycons by diglycosidase in presence of glucose ([4]; Glucose concentration 2 %): 121.4% | Isolation of isoflavone aglycons by diglycosidase in presence of glucose ([4]; Glucose concentration 4 %): 127.6% | Isolation of isoflavone aglycons by diglycosidase in presence of glucose ([4]; Glucose concentration 8 %): 128.6% | Isolation of isoflavone aglycons by diglycosidase in presence of glucose ([4]; Glucose concentration 20 %): 116.4%
SMILES: COc1cc2c(=O)c(-c3ccc(O)cc3)coc2cc1O[C@@H]1O[C@H](COC(=O)CC(=O)O)[C@@H](O)[C@H](O)[C@H]1O [malonylglycitin, 6″-O-malonylglycitin]
